# In US8445492B2, “Method for inhibiting growth of cancer cells and cell telomere and diseases of cell proliferation by using heteroannelated anthraquinone derivative compounds” (National Defense Medical Center, priority 2008, dated 2013):
# Legend:
# Format in all cases: cell-based
# [1] = system: M14; experiment: NCI DTP in-vitro dose response, Melanoma
# [2] = system: UACC-62; experiment: NCI DTP in-vitro dose response, Melanoma
# [3] = system: SK-MEL-5; experiment: NCI DTP in-vitro dose response, Melanoma
# [4] = system: LOX IMVI; experiment: NCI DTP in-vitro dose response, Melanoma
# [5] = system: UACC-257; experiment: NCI DTP in-vitro dose response, Melanoma
# [6] = system: SK-MEL-28; experiment: NCI DTP in-vitro dose response, Melanoma
# [7] = system: MALME-3M; experiment: NCI DTP in-vitro dose response, Melanoma
# [8] = system: T-47D; experiment: NCI DTP in-vitro dose response, Breast Cancer; details: T-47D
# [9] = system: BT-549; experiment: NCI DTP in-vitro dose response, Breast Cancer
# [10] = system: MDA-MB-231/ATCC; experiment: NCI DTP in-vitro dose response, Breast Cancer; details: MDA-MB-231/ATCC
# [11] = system: HS 578T; experiment: NCI DTP in-vitro dose response, Breast Cancer; details: HS 578T
# [12] = system: MCF7; experiment: NCI DTP in-vitro dose response, Breast Cancer
# [13] = system: MDA-MB-435; experiment: NCI DTP in-vitro dose response, Breast Cancer
# [14] = system: NCI/ADR-RES; experiment: NCI DTP in-vitro dose response, Breast Cancer; details: NCI/ADR-RES
# [15] = read-out: LC50 (the source's name)
compound,measurement,setting,value
CCc1nc2ccc3c(c2[nH]1)C(=O)c1ccccc1C3=O [TABLE 4-5],CC50,[1],> 100 µM
same,TGI,[1],>1.00E−4
same,Percent Growth,[1]; Log10 Concentration −4.0,25%
same,Percent Growth,[1]; Log10 Concentration −5.0,50%
same,Percent Growth,[1]; Log10 Concentration −6.0,78%
same,Percent Growth,[1]; Log10 Concentration −7.0,95%
same,Percent Growth,[1]; Log10 Concentration −8.0,88%
same,GI50,[1]; read-out: GI50,10.2 µM
same,CC50,[2],> 100 µM
same,TGI,[2],>1.00E−4
same,Percent Growth,[2]; Log10 Concentration −4.0,26%
same,Percent Growth,[2]; Log10 Concentration −5.0,41%
same,Percent Growth,[2]; Log10 Concentration −6.0,85%
same,Percent Growth,[2]; Log10 Concentration −7.0,92%
same,Percent Growth,[2]; Log10 Concentration −8.0,83%
same,GI50,[2]; read-out: GI50,6.18 µM
same,CC50,[3],> 100 µM
same,TGI,[3],8.36E−6
same,Percent Growth,[3]; Log10 Concentration −4.0,−19%
same,Percent Growth,[3]; Log10 Concentration −5.0,−5%
same,Percent Growth,[3]; Log10 Concentration −6.0,59%
same,Percent Growth,[3]; Log10 Concentration −7.0,42%
same,Percent Growth,[3]; Log10 Concentration −8.0,44%
same,CC50,[4],> 100 µM
same,TGI,[4],>1.00E−4
same,Percent Growth,[4]; Log10 Concentration −4.0,10%
same,Percent Growth,[4]; Log10 Concentration −5.0,33%
same,Percent Growth,[4]; Log10 Concentration −6.0,83%
same,Percent Growth,[4]; Log10 Concentration −7.0,91%
same,Percent Growth,[4]; Log10 Concentration −8.0,101%
same,GI50,[4]; read-out: GI50,4.61 µM
same,CC50,[5],> 100 µM
same,TGI,[5],>1.00E−4
same,Percent Growth,[5]; Log10 Concentration −4.0,18%
same,Percent Growth,[5]; Log10 Concentration −5.0,66%
same,Percent Growth,[5]; Log10 Concentration −6.0,96%
same,Percent Growth,[5]; Log10 Concentration −7.0,84%
same,Percent Growth,[5]; Log10 Concentration −8.0,84%
same,GI50,[5]; read-out: GI50,21.6 µM
same,CC50,[6],> 100 µM
same,TGI,[6],6.36E−5
same,Percent Growth,[6]; Log10 Concentration −4.0,−12%
same,Percent Growth,[6]; Log10 Concentration −5.0,48%
same,Percent Growth,[6]; Log10 Concentration −6.0,79%
same,Percent Growth,[6]; Log10 Concentration −7.0,84%
same,Percent Growth,[6]; Log10 Concentration −8.0,89%
same,GI50,[6]; read-out: GI50,8.58 µM
same,CC50,[7],> 100 µM
same,TGI,[7],8.69E−5
same,Percent Growth,[7]; Log10 Concentration −4.0,−2%
same,Percent Growth,[7]; Log10 Concentration −5.0,26%
same,Percent Growth,[7]; Log10 Concentration −6.0,83%
same,Percent Growth,[7]; Log10 Concentration −7.0,84%
same,Percent Growth,[7]; Log10 Concentration −8.0,87%
same,GI50,[7]; read-out: GI50,3.75 µM
O=C1c2ccccc2C(=O)c2c1ccc1nccnc21 [TABLE 5-9],TGI,[8],7.51E−5
same,Percent Growth,[8]; Log10 Concentration −4.0,−8%
same,Percent Growth,[8]; Log10 Concentration −5.0,56%
same,Percent Growth,[8]; Log10 Concentration −6.0,71%
same,Percent Growth,[8]; Log10 Concentration −7.0,80%
same,Percent Growth,[8]; Log10 Concentration −8.0,85%
same,GI50,[8]; read-out: GI50,12.6 µM
same,CC50,[8]; [15],> 100 µM
same,TGI,[9]; BT-549,9.35E−5
same,Percent Growth,"[9]; BT-549, Log10 Concentration −4.0",−2%
same,Percent Growth,"[9]; BT-549, Log10 Concentration −5.0",55%
same,Percent Growth,"[9]; BT-549, Log10 Concentration −6.0",83%
same,Percent Growth,"[9]; BT-549, Log10 Concentration −7.0",85%
same,Percent Growth,"[9]; BT-549, Log10 Concentration −8.0",95%
same,GI50,"[9]; BT-549, read-out: GI50",12.2 µM
same,CC50,"[9]; BT-549, read-out: LC50 (the source's name)",> 100 µM
same,TGI,[10],>1.00E−4
same,Percent Growth,[10]; Log10 Concentration −4.0,14%
same,Percent Growth,[10]; Log10 Concentration −5.0,64%
same,Percent Growth,[10]; Log10 Concentration −6.0,85%
same,Percent Growth,[10]; Log10 Concentration −7.0,88%
same,Percent Growth,[10]; Log10 Concentration −8.0,100%
same,GI50,[10]; read-out: GI50,19.1 µM
same,CC50,[10]; [15],> 100 µM
same,TGI,[11],9.14E−5
same,Percent Growth,[11]; Log10 Concentration −4.0,−2%
same,Percent Growth,[11]; Log10 Concentration −5.0,59%
same,Percent Growth,[11]; Log10 Concentration −6.0,81%
same,Percent Growth,[11]; Log10 Concentration −7.0,90%
same,Percent Growth,[11]; Log10 Concentration −8.0,88%
same,GI50,[11]; read-out: GI50,14.1 µM
same,CC50,[11]; [15],> 100 µM
same,TGI,[12]; MCF7,2.98E−5
same,Percent Growth,"[12]; MCF7, Log10 Concentration −4.0",−29%
same,Percent Growth,"[12]; MCF7, Log10 Concentration −5.0",27%
same,Percent Growth,"[12]; MCF7, Log10 Concentration −6.0",45%
same,Percent Growth,"[12]; MCF7, Log10 Concentration −7.0",80%
same,Percent Growth,"[12]; MCF7, Log10 Concentration −8.0",81%
same,GI50,"[12]; MCF7, read-out: GI50",0.722 µM
same,CC50,"[12]; MCF7, read-out: LC50 (the source's name)",> 100 µM
same,TGI,[13]; MDA-MB-435,2.37E−5
same,Percent Growth,"[13]; MDA-MB-435, Log10 Concentration −4.0",−95%
same,Percent Growth,"[13]; MDA-MB-435, Log10 Concentration −5.0",57%
same,Percent Growth,"[13]; MDA-MB-435, Log10 Concentration −6.0",101%
same,Percent Growth,"[13]; MDA-MB-435, Log10 Concentration −7.0",97%
same,Percent Growth,"[13]; MDA-MB-435, Log10 Concentration −8.0",101%
same,GI50,"[13]; MDA-MB-435, read-out: GI50",11.1 µM
same,CC50,"[13]; MDA-MB-435, read-out: LC50 (the source's name)",50.4 µM
same,TGI,[14],>1.00E−4
same,Percent Growth,[14]; Log10 Concentration −4.0,8%
same,Percent Growth,[14]; Log10 Concentration −5.0,38%
same,Percent Growth,[14]; Log10 Concentration −6.0,87%
same,Percent Growth,[14]; Log10 Concentration −7.0,92%
same,Percent Growth,[14]; Log10 Concentration −8.0,95%
same,GI50,[14]; read-out: GI50,5.68 µM
same,CC50,[14]; [15],> 100 µM
